Test results reported in ChEMBL document CHEMBL6121052, “Design of ROS-Triggered Sesquiterpene Lactone SC Prodrugs as TrxR1 Covalent Inhibitors for the Treatment of Non-Small Cell Lung Cancer” (J Med Chem, 2025).
The source made the active and inactive calls. The rule behind the calls is not given here.

Tests used:
[1] = system: A549; assay: Cytotoxicity against human A549 cells assessed as cell viability incubated for 48 hrs by MTT assay; assay type: functional, cell-based; conditions: A549, 48 h
[2] = system: NSCLC; assay: Downregulation of TrxR1 expression in human NSCLC cells; assay type: functional, cell-based
[3] = system: A549; assay: Downregulation of TrxR1 level in human A549 cells upto 10 uM incubated for 24 hrs by Western blot analysis; assay type: functional, cell-based
[4] = system: NCI-H1299; assay: Inhibition of colony formation in human NCI-H1299 cells assessed as reduction in colony number at 4 uM incubated for 14 days by crystal violet staining based analysis; assay type: functional, cell-based; conditions: time 14.0 day
[5] = system: NCI-H1299; assay: Antiproliferative activity against human NCI-H1299 cells assessed as decrease in EdU positive cells at 4 uM measured after 14 days by Hoechst 33342 staining based fluorescence microscopic analysis; assay type: functional, cell-based; conditions: time 14.0 day
[6] = system: A549; assay: Induction of intracellular ROS generation in human A549 cells upto 10 uM by DCFH-DA probe based fluorescence assay; assay type: functional, cell-based
[7] = system: A549; assay: Antiproliferative activity against human A549 cells assessed as increase in cell viability in presence of NAC; assay type: functional, cell-based
[8] = system: Mitochondrial membrane; assay: Induction of mitochondrial membrane potential loss in human A549 cells assessed as increase in green fluorescence upto 10 uM incubated for 24 hrs by JC-1 staining based confocal microscopy analysis; assay type: cell membranes
[9] = system: A549; assay: Induction of morphological changes in human A549 cells assessed as decrease in cell density upto 10 uM by AO/EB staining based analysis; assay type: functional
[10] = system: NCI-H1299; assay: Induction of morphological changes in human NCI-H1299 cells assessed as decrease in cell density upto 10 uM by AO/EB staining based analysis; assay type: functional
[11] = system: A549; assay: Induction of morphological changes in human A549 cells assessed as increase in number of contracted shapes upto 10 uM; assay type: functional, cell-based
[12] = system: A549; assay: Induction of apoptosis in human A549 cells assessed as increase in green fluorescence intensity upto 10 uM by AO/EB staining based fluorescence microscopic analysis; assay type: functional, cell-based
[13] = system: A549; assay: Induction of apoptosis in human A549 cells assessed as chromatin condensation upto 10 uM by Hoechst 33258 staining based fluorescence microscopic analysis; assay type: functional, cell-based
[14] = system: A549; assay: Induction of apoptosis in human A549 cells assessed as viable cells at 2.5 uM measured after 48 hrs by Annexin V/FITC staining based flow cytometric analysis (reference value: 90.8 %); assay type: functional; conditions: read-out: Activity
[15] = system: A549; assay: Induction of apoptosis in human A549 cells assessed as early apoptotic cells at 2.5 uM measured after 48 hrs by Annexin V/FITC staining based flow cytometric analysis (reference value: 1.31 %); assay type: functional
[16] = system: A549; assay: Induction of apoptosis in human A549 cells assessed as early apoptotic cells at 5 uM measured after 48 hrs by Annexin V/FITC staining based flow cytometric analysis (reference value: 1.31 %); assay type: functional
[17] = system: A549; assay: Induction of apoptosis in human A549 cells assessed as necrotic cells at 5 uM measured after 48 hrs by Annexin V/FITC staining based flow cytometric analysis (reference value: 2.52 %); assay type: functional
[18] = system: A549; assay: Induction of apoptosis in human A549 cells assessed as viable cells at 10 uM measured after 48 hrs by Annexin V/FITC staining based flow cytometric analysis (reference value: 90.8 %); assay type: functional; conditions: read-out: Activity
[19] = system: A549; assay: Induction of apoptosis in human A549 cells assessed as necrotic cells at 10 uM measured after 48 hrs by Annexin V/FITC staining based flow cytometric analysis (reference value: 2.52 %); assay type: functional
[20] = system: NCI-H1299; assay: Induction of apoptosis in human NCI-H1299 cells assessed as viable cells at 2.5 uM measured after 48 hrs by Annexin V/FITC staining based flow cytometric analysis (reference value: 96.3%); assay type: functional; conditions: read-out: Activity
[21] = system: NCI-H1299; assay: Induction of apoptosis in human NCI-H1299 cells assessed as late apoptotic cells at 10 uM measured after 48 hrs by Annexin V/FITC staining based flow cytometric analysis (reference value: 1.96%); assay type: functional
[22] = system: NCI-H1299; assay: Induction of apoptosis in human NCI-H1299 cells assessed as increase in Bax expression at upto 10 uM incubated for 24 hrs by Western blot analysis; assay type: functional, cell-based
[23] = system: A549; assay: Induction of apoptosis in human A549 cells assessed as increase in Bax expression at upto 10 uM incubated for 24 hrs by Western blot analysis; assay type: functional, cell-based
[24] = system: NCI-H1299; assay: Induction of apoptosis in human NCI-H1299 cells assessed as decrease in BCl-2 expression at upto 10 uM incubated for 24 hrs by Western blot analysis; assay type: functional, cell-based
[25] = system: A549; assay: Induction of ferroptosis in human A549 cells assessed as cell death by MTT assay; assay type: functional, cell-based
[26] = system: NCI-H1299; assay: Induction of ferroptosis in human NCI-H1299 cells assessed as cell death by MTT assay; assay type: functional, cell-based
[27] = system: NCI-H1299; assay: Induction of ferroptosis in human NCI-H1299 cells assessed as increase in intracellular LPO accumulation at 5 uM incubated for 24 hrs by flow cytometry analysis; assay type: functional, cell-based
[28] = system: A549; assay: Induction of ferroptosis in human A549 cells assessed as effect on SLC7A11 protein expression at 10 uM incubated for 24 hrs by Western blotting analysis; assay type: functional, cell-based
[29] = system: A549; assay: Induction of ferroptosis in human A549 cells assessed as effect on GPX4 protein expression at 10 uM incubated for 24 hrs by Western blotting analysis; assay type: functional, cell-based
[30] = system: NCI-H1299; assay: Induction of ROS accumulation in human TrxR1 knockdown NCI-H1299 cells incubated for 24 hrs; assay type: functional, cell-based
[31] = system: NCI-H1299; assay: Antitumor activity against human NCI-H1299 cells xenografted in BALB/c mouse assessed as reduction in tumor volume at 5 to 10 mg/kg, po administered every 2 days for 2 weeks; assay type: functional, organism-based; conditions: dose 5-10 mg/kg
[32] = system: NCI-H1299; assay: Antitumor activity against human NCI-H1299 cells xenografted in BALB/c mouse assessed as reduction in tumor weight at 5 to 10 mg/kg, po administered every 2 days for 2 weeks; assay type: functional, organism-based; conditions: dose 5-10 mg/kg
[33] = Toxicity in BALB/c mouse assessed as liver damage at 5 to 10 mg/kg, po administered every 2 days for 2 weeks by H and E staining based analysis; assay type: organism-based; conditions: in vivo, 336 h, dose 5-10 mg/kg
[34] = Toxicity in BALB/c mouse assessed as lung damage at 5 to 10 mg/kg, po administered every 2 days for 2 weeks by H and E staining based analysis; assay type: organism-based; conditions: in vivo, 336 h, dose 5-10 mg/kg
[35] = system: NCI-H1299; assay: Antitumor activity against human NCI-H1299 cells xenografted in BALB/c mouse assessed as decrease in TrxR1 expression at 5 to 10 mg/kg, po administered every 2 days for 2 weeks by IHC analysis; assay type: functional, organism-based; conditions: dose 5-10 mg/kg
[36] = system: NCI-H1299; assay: Antitumor activity against human NCI-H1299 cells xenografted in BALB/c mouse assessed as decrease in Ki-67 expression at 5 to 10 mg/kg, po administered every 2 days for 2 weeks by IHC analysis; assay type: functional, organism-based; conditions: dose 5-10 mg/kg
[37] = Cmax in male Sprague-Dawley rat at 10 mg/kg, iv measured upto 24 hrs by LC-MS/MS analysis; assay type: ADME, organism-based; conditions: in vivo
[38] = AUC (0 to infinity) in male Sprague-Dawley rat at 10 mg/kg, iv measured upto 24 hrs by LC-MS/MS analysis; assay type: ADME, organism-based; conditions: in vivo
[39] = Volume of distribution at steady state in male Sprague-Dawley rat at 10 mg/kg, iv measured upto 24 hrs by LC-MS/MS analysis; assay type: ADME, organism-based; conditions: in vivo, read-out: Vdss

## CCCNC(=O)O[C@@H]1/C=C(\C)C[C@H]2C=C(C[C@@H]3OC(=O)[C@H](CSC(=S)N(C)C)[C@H]31)C(=O)O2
[1]
  IC50: 1740 nM
[2]
  Activity: Active
[3]
  Activity: Active
[4]
  inhibition: Active
[5]
  Activity: Active
[6]
  Activity: Active
[7]
  Activity: Active
[8]
  Activity: Active
[9]
  Activity: Active
[10]
  Activity: Active
[11]
  Activity: Active
[12]
  Activity: Active
[13]
  Activity: Active
[14]
  viability at 2.5 µM: 87.7%
[15]
  Activity: 1.56%
[16]
  Activity: 2.47%
[17]
  Activity: 3.5%
[18]
  viability at 10 µM: 68.8%
[19]
  Activity: 3.24%
[20]
  viability at 2.5 µM: 89.7%
[21]
  Activity: 21.9%
[22]
  Activity: Active
[23]
  Activity: Active
[24]
  Activity: Active
[25]
  Activity: Active
[26]
  Activity: Active
[27]
  Activity: Active
[28]
  Activity: Active
[29]
  Activity: Active
[30]
  Activity: Active
[31]
  Activity: Active
[32]
  Activity: Active
[33]
  Activity: Non-toxic
[34]
  Activity: Non-toxic
[35]
  Activity: Active
[36]
  Activity: Active
[37]
  Cmax: 2310 ng/mL
[38]
  AUC(0-inf): 1080 ng·h/mL
[39]
  Vd: 57.6 L/kg
